Laboratory results published in PMC10103840 (Frontiers in Pharmacology, 2023).
“And” between values parts separate entries of the source, which are not always exact repeats. Identical values can stand only once.

Legend:
human placental barrier = conditions: for Sampling (% found): amount removed by sampling during 240 min perfusion; for M perfusate (% found): maternal perfusate after 240 min
BeWo cells = conditions: ref Spiess et al., 2022b, cited from earlier work
BeWo b30 cells [1] = assay: Sodium fluorescein (NaF) exclusion assay for monolayer formation; format: in vitro ADME, human; conditions: day 9 after seeding, 5 μM apical, 60 min
Protocol: Measurement of transepithelial electrical resistance (TER) was used to assess the tightness of a cell-to-cell barrier, and the electrical capacitance Ccl, provided additional information about the properties of the cell layer (e.g., presence of microvilli and other membrane extrusions). TER and Ccl values were recorded in 15 min time intervals, using a cellZscope®. TER values were corrected for the surface area (Ωcm^2) and the reference resistance (well with the same filter insert and medium, but absence of cells). Moreover, a permeability assay with sodium fluorescein (NaF) was performed on days 7–11 (n = 3). The basolateral compartment of a transparent 24-well plate consisted of PBS only (1′000 μL) while NaF (5 μM in PBS; 200 μL) was added to the apical compartment for 60 min. The control consisted of cell-free inserts (n = 3). Basolateral samples (50 μL) were directly added to black Nunc MaxiSorp microtiter plates, and concentrations were determined using a Cytation 3 fluorescence microplate reader (BioTek Instruments; excitation wavelength 460 nm; emission wavelength 515 nm). […]
hyperforin, h ypericin, and valerenic acid. The compounds were spiked into PBS and then […]
to avoid interference of any stabilit y issues. […]
four independent experiments.
Supplementary Figure 3. Evaluation of monolayer formation using a sodium fluorescein […]
Control consists of a cell-free insert […]

[2] = System adherence test (empty perfusion chamber, maternal circuit only); format: in vitro ADME; conditions: % of initial concentration, 5 μM in PM, no placental tissue, 240 min, n = 3
Protocol: The dissolution and adherence of the compounds to the perfusion equipment and to the tubing system was assessed before starting perfusions with human placentae. […] The compounds were directly dissolved in PM at a final concentration of 5 μM (100 mL reservoir) and individually tested in three independent experiments (n = 3).

[3] = Stability assay in PBS, perfusion medium and placental homogenates; format: in vitro ADME, human; conditions: 360 min
Protocol: In short, after spiking the various matrices with the study compounds, samples were either processed immediately for U(H)PLC-MS/MS analysis (C0), or kept at 4°C/37°C on an orbital shaker (600 rpm) for 360 min before processing for U(H)PLC-MS/MS analysis. Samples were processed via solid phase extraction or protein precipitation prior to analysis.

placental tissue = assay: Histopathological evaluation of perfused placentae; parameters: species or system human
Protocol: Immediately after perfusion the placentae were fixed in 4% paraformaldehyde for at least 24 h. Tissue samples from representative placental tissue sections, each from perfused, non-perfused, and transitional area were prepared to perform a pathological examination. For this purpose, the tissue was embedded in paraffin, cut (∅ 2-3 µm), and stained (standard hematoxylin-eosin stain, Braun-Brenn modified Gram stain) according to the standards of routine histopathological diagnosis of the Department of Pathology and Molecular Pathology (University Hospital of Zurich). […] The blood void and width of the intervillous space and fetal blood vessels in the chorionic villi provided information about the quality of perfusion, and particular attention was paid to the presence of intravascular thrombi. General signs of degeneration, such as vacuolization of the cytotrophoblast, villous vascular endothelium viability, and formation of hydropic villous changes compared with non-perfused tissue indicated whether tissue damage might have occurred during perfusion. Microscopic effects and placental tissue damage in the perfused area were expressed in relative amounts (%) to the non-perfused tissue.

[4] = In vitro Transwell permeability assay across BeWo b30 cell layer; conditions: human
Protocol: (§1) BeWo b30 choriocarcinoma cells were obtained from Dr. Tina Buerki-Thurnherr (Empa, St. Gallen, Switzerland), with permission from Dr. Alan L. Schwartz (Washington University School of Medicine, St. Louis MO, USA), and were cultivated in F-12 K Nut Mix supplemented with 10% heat inactivated FBS, antibiotics (100 U/mL penicillin, 100 µg/mL […]), and 2 mM L-glutamine (all from Gibco). The cells were cultivated in a humidified incubator at 37°C and 5% CO2 atmosphere.
(§2) BeWo b30 cells were cultured on Transwell® polycarbonate membrane inserts (24-well format; 0.4 μm pore size, 0.33 cm^2 cell growth area, 200 μL apical volume, 1′000 μL basolateral volume; Corning, Sigma-Aldrich) at a density of 60′000 cells/well. These inserts were then cultivated in a cellZscope (nanoAnalytics) at 37°C/5% CO2. Cell culture medium was replaced every 2 days up to 11 days to find the best possible conditions.
(§3) BeWo b30 cells were cultured in transparent 24-well plates under the same conditions as mentioned above and transferred to the cellZscope® at day 8 to record TER and Ccl values. After 24 h (day 9) and when a TER of 30–60 Ωcm^2 was reached and Ccl was between 0.5 and 5.0 μF/cm^2, the permeability assay was initiated by adding valerenic acid (5 μM; in HBSS with 4% BSA) to the apical compartment, while the basolateral compartment contained 1′000 μL of HBSS only. […] Samples (150 μL apical, 800 μL basolateral) were collected at each time point (0, 15, 30, 60 min; one insert per time point). After 60 min, a part of the inserts was transferred back to the cellZscope® to monitor TER and Ccl values during another 24 h. The cells grown on the other part of the inserts were quickly washed with 200 μL of cold HBSS and then lysed with 700 μL acetonitrile (100 μL apical, 600 μL basolateral) for 40 min on an orbital shaker (450 rpm, room temperature) to determine the test substance cell contents.
(§4) Apparent permeability coefficients (Papp) were calculated according to the following Eq. 1: Papp cm/s=∆Q/∆t/ACA0 (1) where ΔQ/Δt is the rate of amount transported to the receiver compartment, A is the membrane surface area (0.33 cm^2), and C A0 is the initial concentration in the apical compartment.
(§5) The clearance values were calculated according to the following Eq. 2 ([Neuhaus et al., 2008]): Clearance μL=CBnVB/CA−VB/VA∙∑CBn−1 (2) where C Bn and V B are the concentration and volume in the basolateral compartment at a specific timepoint (n), respectively; C A and VA are the concentration and volume in the apical compartment, respectively, and C Bn-1 is the total amount of substance found in the basolateral compartment up to the previous timepoint (n-1).
(§6) Recovery (mass balance) of each compound was calculated according to the following Eq. 3: Recovery %=CAfVA+CBfVB+CCfVC/CA0VA∙100 (3) where C Af , C Bf and C Cf are the final compound concentrations in apical, basolateral, and cellular compartments, respectively; C A0 is the initial concentration in the apical compartment, and V A , V B and V C are the volumes in the respective compartments.
(§7) For valerenic acid, 150 µL of the IS in MeOH were added to 50 µL of sample, and the mixture centrifuged for 20 min at 13′200 rpm/16′100 rcf at 10°C (Centrifuge 5415R, Eppendorf). An aliquot (50 µL) of the supernatant was collected and transferred into HPLC vials. Vials were centrifuged for additional 20 min prior to U(H)PLC-MS/MS analysis in full loop mode (2 µL).

BeWo b30 cells [5] = assay: as above
Protocol: as §1, §2, §3, §4, §5, §6, §7

in vitro = conditions: human, pH 7.2
[6] = Transwell control experiments across cell-free inserts; conditions: semi-permeable cell-free insert, within 60 min, 5 μM
[7] = after 240 min of perfusion, 5 μM added to maternal circuit
[8] = % of amount in maternal sample at beginning
[9] = non-perfused area of same placenta

SMILES: CC(C)=CCC[C@]1(C)[C@@H](CC=C(C)C)C[C@]2(CC=C(C)C)C(=O)C(CC=C(C)C)=C(O)[C@@]1(C(=O)C(C)C)C2=O [Hyperforin, hyperforin]
- Transplacental transfer (in words) (human placental barrier; 240 min perfusion, 5 μM maternal): little transfer to the fetal circuit
- Concentration in the maternal compartment (human placental barrier; [7]): 68.6 % of initial concentration
- Sampling (% found) (human placental barrier): 21.0 ± 4.5%
- M perfusate (% found) (human placental barrier; [8]): 52.2 ± 21.5% and 52.2%
- Concentration with increased apoptosis / apoptotic effects (BeWo cells): ≥ 3 µM

SMILES: O=C([O-])c1ccccc1-c1c2ccc(=O)cc-2oc2cc([O-])ccc12.[Na+].[Na+] [NaF, sodium fluorescein]
- Basolateral amount of NaF (BeWo b30 cells [1]): 2.8 % of the initial NaF concentration

SMILES: CC1=C2[C@H](/C=C(\C)C(=O)O)CC[C@@H](C)[C@H]2CC1 [Valerenic acid, valerenic acid]
- Compound lost / adhering to the perfusion equipment [2]: 5.6% and 5.6% ± 1.9%
- Stability in PBS and PM [3]: approx. 100%
- Global placental pathology: Else (placental tissue): Formation of artificial cavities in 10% of perfused areas and N and Singular non-occlusive thrombus in stem villus; CCB
- Sharp transition perfused/non-perfused (placental tissue): Y and N
- Extravasations into villous stroma (in words) (placental tissue; after perfusion): no extravasations into villous stroma
- Ruptures of villous vessels (in words) (placental tissue; after perfusion): no ruptures of villous vessels
- Emptiness of villous vessels in non-perfused (placental tissue; [9]): 10% and 1%
- Hydropic changes in non-perfused (placental tissue; [9]): 5% and 0%
- Intervillous spaces without blood in non-perfused (placental tissue; [9]): 70% and 50% and 60% and 40%
- Thrombi in villous vessels: in non-perfused too? (placental tissue; [9]): 1%
- Vacuolated trophoblast in villi: in non-perfused too? (placental tissue; [9]): 0% and 5%
- Thrombi in vessels of stem villi (in words) (placental tissue; perfused and non-perfused): no thrombi detectable
- Dilatated intervillous space (placental tissue; perfused area): 50% and 90% and 70%
- Intervillous spaces without blood (placental tissue; perfused area): 95%
- Emptiness of villous vessels (placental tissue; perfused area, individual experiments): 95% and 80% (2×) and 90%
- recovery at 60 min, 5 μM [4]: 73.7%
- Passage across the placental cell layer (in words) (BeWo b30 cells [5]; 5 μM apical, HBSS with 4% BSA, 60 min): did not cross the placental cell layer within 60 min
- Papp (BeWo b30 cells [5]; apical to basolateral, BeWo b30 cell layer, 5 μM): zero
- Concentration in the fetal compartment (human placental barrier; [7]): 44.0 % of initial concentration
- Concentration in the maternal compartment (human placental barrier; [7]): 45.0 % of initial concentration
- Sampling (% found) (human placental barrier): 24.1 ± 4.8%
- F perfusate (% found) (human placental barrier; fetal perfusate after 240 min, % of amount in maternal sample at beginning): 33.1 ± 10.7% and 33.1%
- FM ratio at 240 min (human placental barrier; fetal/maternal concentration ratio, 240 min, antipyrine from control perfusions): 1.01
- M perfusate (% found) (human placental barrier; [8]): 34.4%
- Time to equilibrium between fetal and maternal compartment (human placental barrier; perfusion profiles, antipyrine as connectivity control): 240 min
- recovery at 240 min, 5 μM (in vitro): 91.5%
- Concentrations not lowering viability, no increase in apoptosis or genotoxicity, no negative effect on metabolic activity and cell differentiation (BeWo cells; BeWo b30 cells): up to 30 μM
- Clearance across cell-free insert [6]: 28.3 µL
